Where a SMILES comes first, the peptide text is derived from it. The star is where a group is joined. Cbz = O=C(OCc1ccccc1)*
Columns and labels:
[1] = tested on: Cluster 15 (C15) genes incl. LGALS8; assay: RT-qPCR of Cluster 15 gene expression in PAECs; type: cell-based, human; conditions: PAECs + IL-1β; for IL-1β-induced expression changes in Cluster 15 members SLC9A3R1, LGALS3: 500 nM
Method: (§1) Human recombinant galectin-8 (1305-GA-050) was purchased from R&D Systems and was used at a working concentration of 30 nM.
RT-qPCR analysis: Cells were lysis in 1 ml of QiaZol reagent (Qiagen). Total RNA content was extracted using the RNeasy kit (Qiagen), according to the manufacturer's instructions. Total RNA concentration was determined using a BioTek Synergy multimode plate reader. Messenger RNAs were reverse transcribed to generate cDNA using the Multiscript RT kit (Thermo Fisher Scientific). cDNA for specific gene targets was amplified and quantified via fluorescently-labeled Taqman primer sets and Taqman fast advanced master mix (Thermo Fisher Scientific) using an Applied Biosystems QuantStudio 6 Flex Real-Time PCR System.

[2] = tested on: SU5416-hypoxic pulmonary arterial hypertension rats; assay: SU5416-hypoxia pulmonary arterial hypertension rat model; type: in vivo, Sprague-Dawley rats
Method: Briefly, 10 week old male Sprague-Dawley rats were injected i.p. with 20 mg/kg of SU5416 (Sigma), placed in normobaric hypoxia (10% O2) for 3 weeks and then transferred to normoxia for 2 weeks. During hypoxic exposure, chambers were opened twice a week for cleaning and replenishment of food and water. […] For BRD2889 vs. vehicle control dosing, i.p. injections every 5 days (5 mg/kg) were administered during the final two weeks of normoxia. Oxygen concentrations were continuously monitored with blood gas analyzers.
Following euthanasia, right ventricle/[left ventricle+septum]
Measurement of GST activity: The GST activity from lung tissue and PAECs was assayed using GST assay kit (Cayman, MI, USA) per the manufacturer's instructions.
Rodent echocardiography: Echocardiography was performed using a 15-45 MHz transthoracic transducer and a Visual Sonics Vevo 3100 system (Fujifilm). Inhaled isoflurane anesthesia was used at 2% in 100% O2 during positioning and hair removal and then decreased to isoflurane 0.8% during imaging.

PAECs [3] = assay: Apoptosis by caspase-3/7 activity in PAECs; type: cell-based, human
Description: (§2) Cell culture: Primary human pulmonary artery endothelial cells (PAECs) and human pulmonary artery smooth muscle cells (PASMCs) were purchased from Lonza (302-05A, CC-2581). Of note, the same two male donors were the source of all PAECs in the experiments shown. Two additional male donors were the source for all PASMCs in the experiments shown. Cells from these and any donors were characterized by flow cytometry for consistent expression of cell surface markers and by RNA (RT-qPCR) analysis of endothelial and smooth muscle gene expression. PAECs were cultured in EGM-2 media (CC-3121) along with supplements (CC-4133), and PASMCs were cultured in SmGM-2 culture media (Lonza, CC-3182) at 5% CO2 in a humidified incubator.
as §1
(§3) For hypoxia exposure, cells were plated in 6-well cell culture plates at 1×10^5 cells/well, grown for 24 hr and placed into a normobaric hypoxia chamber (1% O2) for 24 h under specific treatment conditions. Namely, for I-BET and siLGALS8 exposures, cells were either pre-treated with I-BET/vehicle control (VC) or transfected with siLgals8/Scr for 24 h. Then, they were cultured in basal media at 1% 02. After 24 h, caspase activity and mitochondrial superoxide levels were quantified. To detect activation status of pSTAT1/STAT1 by immunoblot, cells were exposed to 8 h of hypoxia.
(§4) In IL-6/sIL-6R+hypoxia experiments, a human recombinant IL-6/IL-6R alpha protein chimera (25 ng/ml, Millipore) was administered at 70-80% confluency for 48 h in complete media along with vehicle control (DMSO, Sigma-41639). BRD2889 (1 uM) vs. vehicle control were added, as indicated, and placed into a hypoxia chamber for 24 h. The hypoxia chamber (modular incubator chamber) was obtained from Billups-Rothenberg Inc. (Del Mar, Calif) and placed in regulated CO2 incubator at 37° C.
Cellular apoptosis: Caspase-3/7 activity was quantified using the Caspase-Glo 3/7 Assay (Promega), according to manufacturer's instructions. Caspase-3/7 activity was normalized to total protein content determined by BCA method (Thermo Fisher Scientific).

PAECs [4] = assay: Global transcriptome microarray in PAECs; type: cell-based, human; conditions: IL-1β +/- I-BET762, microarray
Description: The gene expression was normalized with Robust Multiarray Analysis (RMA). For BRD2889, the same approach was employed using Affymetrix Clariom S array on RNA isolated from PAECs treated with BRD2889 or vehicle and subjected to either hypoxia or normoxia. Differentially expressed genes were defined as any gene for which the FDR adjusted p-value was below 0.05 (n=3/grp). Reversed genes were further defined as those genes that were differentially expressed in both (hypoxia versus normoxia) and in (hypoxia+BRD2889 versus hypoxia)+vehicle as well as were regulated in opposite directions. Similarly, for I-BET that were differentially expressed in IL-1β+VC versus control and IL-1β+I-BET versus IL-1β+VC and were regulated in opposite directions. The data for both I-BET and BRD2889 have been submitted to the NCBI Gene Expression Omnibus with accession numbers GSE125508 and GSE160255, respectively.

LGALS8 = assay: Immunoblot and densitometry of LGALS8 isoforms in PAECs; type: cell-based, human; conditions: PAECs + IL-1β
Method: as §1
(§5) Immunoblot and densitometry: Cells were lysed in RIPA buffer (Sigma) along with 1× protease inhibitor cocktail (Sigma). Protein lysate was resolved by gradient 4%-15% SDS-PAGE gels and transferred onto a 0.2 μm PVDF membrane (Bio-Rad). Membranes were blocked in 5% non-fat milk in 1×PBST buffer for one hour at room temperature. Later, they were incubated in the presence of the primary antibody overnight at 4° C. and then appropriate HRP-conjugated secondary antibodies (Life Technologies). The following antibodies were used: human LGALS8 (AF1305, RnD Systems), mouse/rat Lgals8 (ab69631, Abcam), pSTAT1 (ab29045, Abcam) and STAT1 (ab47425, Abcam), GSTP1 (ab153949, Abcam), ISCU (14812-1-AP, Prointech), Glutathione (ab19534, Abcam), HIF2A (NB100-122, Novous), α-Tubulin (CP06, Millipore sigma), and ACTB (sc-47778, Santa Cruz). The immunoreactive bands were visualized with the Chemidoc XRS+system (Bio-Rad) using SuperSignal West Femto chemiluminescent substrates (Thermo Fisher Scientific). The images were later quantified using AlphaEaseFC software (Alpha Innotech).

PAECs [5] = assay: Mitochondrial superoxide by MitoSOX Red flow cytometry in PAECs; type: cell-based, human
Description: as §2, §1, §3
Flow cytometry detection of mitochondrial superoxide: For measuring mitochondrial superoxide, cells were incubated with 5 μM of MitoSOX Red mitochondrial superoxide indicator (Thermo Fisher Scientific) for 10 min in 37° C. CO2 incubator. Next, cells were washed with 1×PBS, trypsinized, and fluorescence (488 nm/580 nm) was measured on flow analyzer (BD LSR FORTESSA or BD LSRII) using BD […] software.

Cluster 15 (C15) genes = assay: RT-qPCR of Cluster 15 gene expression in PASMCs; type: cell-based, human; conditions: PASMCs + IL-1β
Description: as §2, §1
RT-qPCR analysis: Cells were lysis in 1 ml of QiaZol reagent (Qiagen). […] Total RNA concentration was determined using a BioTek Synergy multimode plate reader. Messenger RNAs were reverse transcribed to generate cDNA using the Multiscript RT kit (Thermo Fisher Scientific). cDNA for specific gene targets was amplified and quantified via fluorescently-labeled Taqman primer sets and Taqman fast advanced master mix (Thermo Fisher Scientific) using an Applied Biosystems QuantStudio 6 Flex Real-Time PCR System.

chronically hypoxic mice = assay: Hypoxia-induced pulmonary hypertension mouse model
Description: Animal models: For the hypoxia-induced pulmonary hypertension mice, male C57BL/6J mice (8 weeks old) (RRID:IMSR_JAX:000664) were purchased from Jackson laboratory and acclimatized for 3-4 days in this facility. Subsequently, mice scheduled for normoxic vs. hypoxic exposure were maintained in either normoxia or a normobaric hypoxia chamber for 1 or 3 weeks (OxyCycler, Biospherix Ltd.), where consistent exposure to 10% oxygen and control for temperature and humidity were possible. For testing the activity of I-BET in hypoxia-induced pulmonary hypertension mice, three experimental groups—normoxia+VC (vehicle control), hypoxia+VC (vehicle control), and hypoxia+I-BET were used.
I-BET was dissolved in DMSO at 100× concentration and then made into a working solution in 20% PEG400 and 80% 1×PBS. BRD2889 was made into a working solution of 2.5% DMSO.
Male and female 8 week old Lgals8−/− mice were exposed to hypoxia for 3 weeks. Littermates were used as wildtype (WT) control when comparing with knockout mice.
Immunofluorescent staining: Cryostat sections were cut from OCT-embedded lung tissues at 5-10 μm and mounted on gelatin-coated histological slides. Slides were thawed at room temperature for 10-20 min and rehydrated in wash buffer for 10 minutes. All sections were blocked in 10% donkey serum and exposed to primary antibody and Alexa 488, 568 and 647-conjugated secondary antibodies (Thermo Fisher Scientific). The following primary antibodies were used: Lgals8 (Ab69631, Abcam; 1/200), IL-1β (ab9722, Abcam; 1/200), GSTP1 (ab153949, Abcam; 1:100), ISCU (14812-1-AP, Proteintech; 1:100), cleaved caspase 3 (cs-9661, Cell Signaling; 1/400), α-SMA (F3777, Sigma; 1/200) and CD31 (ab7388, Abcam; 1/200). Images were obtained using Nikon A1 confocal microscope with 40× objective. Small pulmonary vessels (10 vessels/section) that were not associated with bronchial airways were selected for analysis. Intensity of staining was quantified using ImageJ software (NIH). Degree of pulmonary arteriolar muscularization was assessed in OCT lung sections stained for α-SMA by calculation of the proportion of fully and partially muscularized peripheral (<100 μm diameter) pulmonary arteriole to total peripheral pulmonary arterioles (Bertero T et al. J Clin Invest. 2014, 124, 3514-3528).

ISCU = assay: Immunoblot of ISCU and GSTP1 in PAECs; type: cell-based, human; conditions: hypoxic PAECs, MG132 5 mM, 2 h
Method: as §3, §4
(§6) Protein stability assay: The proteasome inhibitor MG132 (M7449, Sigma) was stored at −20° C. at a concentration of 10 mM diluted in dimethyl sulfoxide (DMSO). PAECs were exposed to MG132 ([…]) vs. DMSO vehicle control for 2 hr under hypoxia, prior to harvesting of cellular lysate for immunoblotting.
as §5

glutathionylated ISCU = assay: ISCU glutathionylation by immunoprecipitation and immunoblot in PAECs; type: cell-based, human; conditions: hypoxic PAECs, MG132 5 mM, 2 h
Method: as §6
Immunoblot and densitometry: Cells were lysed in RIPA buffer (Sigma) along with 1× protease inhibitor cocktail (Sigma). Protein lysate was resolved by gradient 4%-15% SDS-PAGE gels and transferred onto a 0.2 μm PVDF membrane (Bio-Rad). Membranes were blocked in 5% non-fat milk in 1×PBST buffer for one hour at room temperature. Later, they were incubated in the presence of the primary antibody overnight at 4° C. and then appropriate HRP-conjugated secondary antibodies (Life Technologies). […] The images were later quantified using AlphaEaseFC software (Alpha Innotech).
Immunoprecipitation: PAECs were transfected with the indicated combinations of siRNAs by Lipofectamine 2000 (Thermo Fisher Scientific) according to the manufacturer's instructions and/or treated with BRD2889 ([…], 24 h). […] After extensive washing, the immunoprecipitated proteins were analyzed by immunoblotting with the indicated antibodies.

[6] = tested on: normal, non-transformed cells; liver and kidney; conditions: literature report; cited from earlier work
[7] = molecular target: glutathione S-transferase pi 1 (GSTP1) (Homo sapiens, UniProt P09211); conditions: literature report; cited from earlier work
[8] = I-BET762 30 mg/kg i.p. daily, Days 21-35
[9] = PAECs + IL-1β 10 ng/ml 48 h, I-BET762 500 nM vs vehicle
[10] = PAECs, hypoxia 1% O2 24 h, I-BET pre-treatment
[11] = I-BET762 30 mg/kg daily oral gavage, chronic hypoxia
[12] = IL-1β-exposed (48 h) PAECs treated with I-BET and rhGal8 (24 h)
[13] = PAECs, rhGal8 alone (30 nM, 24 h)

Sequence of glutathione S-transferase pi 1 (GSTP1) (P09211 whole entry, species assumed): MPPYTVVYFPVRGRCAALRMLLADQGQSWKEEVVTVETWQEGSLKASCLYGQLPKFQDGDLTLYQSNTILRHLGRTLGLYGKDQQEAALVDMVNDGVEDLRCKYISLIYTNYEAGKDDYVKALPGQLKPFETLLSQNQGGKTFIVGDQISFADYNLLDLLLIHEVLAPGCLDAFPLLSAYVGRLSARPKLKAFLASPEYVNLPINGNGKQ

Molecule: COc1cc2c(cc1-c1c(C)noc1C)ncc1[nH]c(=O)n([C@H](C)c3ccccn3)c12 [I-BET151]
- IL-1β-induced expression changes in Cluster 15 members SLC9A3R1, LGALS3 [1]: reversed

Molecule: CCNC(=O)C[C@@H]1N=C(c2ccc(Cl)cc2)c2cc(OC)ccc2-n2c(C)nnc21 [I-BET762]
- LGALS8 in pulmonary arterioles (immunofluorescence) [2, 8]: decreased
- arteriolar muscularization [2, 8]: reduced
- cleaved caspase-3 (CC-3) in pulmonary arterioles [2, 8]: decreased
- right ventricular systolic pressure (RVSP) [2, 8]: reduced
- left ventricular function (LVPW thickness, LVEF, LVFS; echocardiography) ([2]; I-BET762 vs vehicle): did not exhibit altered left ventricular function
- apoptosis (caspase-3/7 activity) (PAECs [3]; [9]): reduced the IL-1β-dependent increase
- apoptosis (caspase-3/7 activity) (PAECs [3]; [10]): reversed the hypoxia-induced increases
- LGALS8-L transcript [1]: reversed
- LGALS8-M transcript [1]: not altered
- IL-1β-induced expression changes in Cluster 15 members SLC9A3R1, LGALS3 [1]: reversed
- expression of C15 genes LGALS3, LGALS8, ABCC4, CD47, SLC9A3R1, DAG1 ([1]; I-BET762 500 nM): reversed
- extent of reversal of C15 genes LGALS3, LGALS8, DAG1, SLC9A3R1 ([1]; I-BET762 500 nM): near complete reversal
- number of genes altered by IL-1β vs vehicle and reversed by drug (PAECs [4]): 524 genes
- LGALS8-L protein (immunoblot) (LGALS8): reversed the IL-1β-induced increase of the L isoform
- mitochondrial superoxide (O2-) levels (PAECs [5]; [9]): reduced the IL-1β-dependent increase
- mitochondrial superoxide levels (PAECs [5]; [10]): reversed the hypoxia-induced increases
- alteration and reversal of C15 genes including LGALS8 (Cluster 15 (C15) genes): not observed
- heart rate (chronically hypoxic mice; [11]): without significant effect
- pulmonary vascular LGALS8, including in endothelial cells (chronically hypoxic mice; [11]): robustly decreased
- pulmonary vascular muscularization (α-SMA stain) (chronically hypoxic mice; [11]): reduced
- right ventricular systolic pressure (RVSP) (chronically hypoxic mice; [11]): reduced
- downstream apoptosis (cleaved caspase-3) (chronically hypoxic mice; hypoxic mice, most notable at early stage (1 week hypoxia)): reduced downstream apoptosis
- LGALS8 in normoxic mice (chronically hypoxic mice; normoxic mice, similar dosing, mean±SEM, vehicle 1±0.02, p=NS): 1.08±0.03 fold change

Molecule: CC(C)C[C@@H](C=O)NC(=O)[C@H](CC(C)C)NC(=O)[C@H](CC(C)C)NC(=O)OCc1ccccc1 [MG132, reference compound] (Cbz-Leu-Leu-Leu-aldehyde)
- ISCU protein (ISCU): reversed the hypoxic down-regulation
- GSTP1 or ISCU glutathionylation (glutathionylated ISCU): without affecting

Molecule: COc1cc(/C=C/C(=O)N2CCC=CC2=O)cc(OC)c1OC [piperlongumine, reference compound]
- toxicity to normal, non-transformed cells [6]: minimal toxicity
- inhibition of GSTP1 [7]: reported to inhibit

B1: rhGal8: recombinant human galectin-8 (R&D Systems 1305-GA-050) (protein, UniProt O00214 1-317, looked up)
Galectin-8: MMLSLNNLQNIIYNPVIPFVGTIPDQLDPGTLIVIRGHVPSDADRFQVDLQNGSSMKPRADVAFHFNPRFKRAGCIVCNTLINEKWGREEITYDTPFKREKSFEIVIMVLKDKFQVAVNGKHTLLYGHRIGPEKIDTLGIYGKVNIHSIGFSFSSDLQSTQASSLELTEISRENVPKSGTPQLRLPFAARLNTPMGPGRTVVVKGEVNANAKSFNVDLLAGKSKDIALHLNPRLNIKAFVRNSFLQESWGEEERNITSFPFSPGMYFEMIIYCDVREFKVAVNGVHSLEYKHRFKELSSIDTLEINGDIHLLEVRSW
- I-BET-induced attenuation of IL-1β-specific apoptosis (caspase 3/7) (PAECs [3]; [12]): reduced the ability of I-BET to decrease
- apoptosis (caspase 3/7 activity) (PAECs [3]; [13]): no effect
- I-BET-induced attenuation of IL-1β-specific mitochondrial superoxide (PAECs [5]; [12]): reduced the ability of I-BET to decrease
- mitochondrial superoxide (PAECs [5]; [13]): no effect

— patent US12599592B2, “Therapeutic small molecules for treatment of pulmonary hypertension” (UNIVERSITY OF PITTSBURGH—OF THE COMMONWEALTH SYSTEM OF …, priority 2020, dated 2026)
